Source: patent publication US20250242006A1, “DRY POWDER COMPOSITIONS COMPRISING EUKARYOTIC CELLS AND METHOD OF THEIR MANUFACTURE AND USE” (BOARD OF REGENTS, THE UNIVERSITY OF TEXAS SYSTEM, priority 2021, published 2025)

Test system: J774A.1 cells
Assay: Viability of J774A.1 cells after thin-film freeze-drying (TFFD), trypan blue stain
Assay type: cell-based, murine
Text: Excipients that were used for their ability to preserve the cells includes disaccharide such as Trehalose, antioxidants such as EGCG, D-α-tocopherol succinate, D-α-tocopherol PEG1000 succinate, Trolox, glutathione, and L-ascorbic acid, polymers such as PVP-40, P-188, dextrin, dextran, and HSA. An equivalent volume of the above-mentioned excipients in complete DMEM or Dulbecco phosphate buffered saline (DPBS) was mixed with cells at final cell concentration of 2.5×10^6 cells/ml for J774A.1 macrophages or 1.0×10^6 cells/mL for THP-1 cells. Cells mixed with trehalose and antioxidant were incubated at 37° C. in 5% CO2 incubator. Polymers and proteins were added to the cells without incubation. The TFF technique was applied to the cell suspension by dropping them as droplets of 3.6-3.8 mm in diameter, 200 μl in 7-8 drops, from a distance of 1-10 cm onto the surface of a cryogenically cooled glass (˜−80° C. achieved using dry ice), which were then stored in −80° C. for 1 h until the lyophilization process. The lyophilizer shelf temperature was set at −35° C., with vacuum pressure at 100 mTorr for 12 h. To measure the viability of the cells after TFFD, the powders were resuspended in DMEM media or DPBS, and cell viability was assessed after trypan blue stain (0.4%, Gibco, Grand Island, NY) using a TC20 Bio-Rad automatic cell counter (Hercules, CA).

Row | SMILES | effect on J774A.1 cell viability after TFFD (antioxidant at 800 μg/ml) | effect on J774A.1 cell viability after TFFD (antioxidant at 500 µM)
1 | Cc1c(C)c2c(c(C)c1OC(=O)CCC(=O)O)CC[C@@](C)(CCC[C@H](C)CCC[C@H](C)CCCC(C)C)O2 [D-α-tocopherol succinate] | helped improve the viability | –
2 | Cc1c(C)c2c(c(C)c1O)CCC(C)(C(=O)O)O2 (centres unmarked) [Trolox] | – | helped improve the viability
